Results: patent US20230407243A1, “GENETIC PLATFORM TO INVESTIGATE THE FUNCTIONS OF BACTERIAL DRUG EFFLUX PUMPS” (priority 2022, published 2023)
Values after ≈ are worked out from the molar mass of the structure shown.

Key:
Type in all cases: cell-based, Escherichia coli
EKO-35-Pore = assay: MIC susceptibility profiling, porinated strain; conditions: for Fold changes of MICs: EKO-35-Pore compared to EKO-35-Pore (reference); for Minimum inhibitory concentration (MIC), Pore EKO-35: Table 10, with pore; for Minimum inhibitory concentration (MIC), Pore EKO-35 / Minimum inhibitory concentration, EKO-35-Pore: technical duplicate; for Minimum inhibitory concentration, EKO-35-Pore: Table 14A, porinated
Method in brief: (§1)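 MIC values come from background-corrected OD600 readings (pre-incubation OD subtracted) after 18 h at 37 °C and 900 rpm in MHB II. Compounds were tested in duplicate as 2-fold dilutions. The inoculum came from 18 h LB cultures adjusted to OD600 ~1.0 and diluted 1/2000, and the pore-bearing strains were vancomycin-checked beforehand.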

EKO-35 araC::acrB Pore = assay: MIC susceptibility profiling, porinated efflux platform; conditions: for Fold changes of MICs: EKO-35 araC::acr-B Pore compared to EKO-35-Pore
Method in brief: as §1

[1] = test system: EKO-35 araC::acrBD408A Pore; assay: as above; conditions: for Fold changes of MICs: EKO-35 araC::acrBD408A Pore compared to EKO-35-Pore; for Minimum inhibitory concentration: EKO-35 araC::acrBD408A Pore, technical duplicate
Method in brief: as §1

EKO-35 araC::acrD Pore = assay: as above; conditions: for Fold changes of MICs: EKO-35 araC::acrD Pore compared to EKO-35-Pore; for Minimum inhibitory concentration, EKO-35 araC::acrD Pore: Table 14A, porinated, technical duplicate
Method in brief: as §1

EKO-35 araC::emrAB Pore = assay: as above; conditions: for Fold changes of MICs: EKO-35 araC::emrAB Pore compared to EKO-35-Pore; for Minimum inhibitory concentration: EKO-35 araC::emrAB Pore, technical duplicate
Method in brief: as §1

EKO-35 araC::mdtBC Pore = assay: as above; conditions: for Fold changes of MICs: EKO-35 araC::mdtBC Pore compared to EKO-35-Pore; for Minimum inhibitory concentration: EKO-35 araC::mdtBC Pore, technical duplicate
Method in brief: as §1

EKO-35 araC::mexCD Pore = assay: as above; conditions: for Fold changes of MICs: EKO-35 araC::mexCD Pore compared to EKO-35-Pore; for Minimum inhibitory concentration: EKO-35 araC::mexCD Pore, technical duplicate
Method in brief: as §1

EKO-35 (empty pCA24N) = assay: microbe, parasite or virus in culture
[2] = Table 14A, porinated, technical duplicate

Compound | Fold changes of MICs (EKO-35-Pore) | Minimum inhibitory concentration (MIC), Pore EKO-35 (EKO-35-Pore) | Minimum inhibitory concentration, EKO-35-Pore (EKO-35-Pore) | Fold changes of MICs (EKO-35 araC::acrB Pore) | Minimum inhibitory concentration, EKO-35 araC::acrB Pore (EKO-35 araC::acrB Pore; [2]) | Fold changes of MICs [1] | Minimum inhibitory concentration [1] | Fold changes of MICs (EKO-35 araC::acrD Pore) | Minimum inhibitory concentration, EKO-35 araC::acrD Pore (EKO-35 araC::acrD Pore) | Fold changes of MICs (EKO-35 araC::emrAB Pore) | Minimum inhibitory concentration (EKO-35 araC::emrAB Pore) | Fold changes of MICs (EKO-35 araC::mdtBC Pore) | Minimum inhibitory concentration (EKO-35 araC::mdtBC Pore) | Fold changes of MICs (EKO-35 araC::mexCD Pore) | Minimum inhibitory concentration (EKO-35 araC::mexCD Pore) | further results
benzalkonium chloride | 1 fold | 0.391 µg/mL | 0.391 µg/mL | 8 fold | 3.125 µg/mL | 1 fold | 0.391 µg/mL | 1 fold | 0.391 µg/mL | 1 fold | 0.391 µg/mL | 1 fold | 0.195 µg/mL | 1 fold | 0.391 µg/mL | MIC (EKO-35 (empty pCA24N); EKO-35 empty pCA24N, Chlor + (4 μg/mL chloramphenicol), 0.1 mM IPTG): 0.781 µg/mL; MIC (EKO-35 (empty pCA24N); EKO-35 empty pCA24N, Chlor −, 0.1 mM IPTG): 0.781 µg/mL
COc1cc(Cc2cnc(N)nc2N)cc(OC)c1OC [trimethoprim] | 1 fold | – | – | 4 fold | – | 1 fold | – | 1 fold | – | 2 fold | – | 1 fold | – | 1 fold | – | MIC (EKO-35 araC::acrB Pore; Escherichia coli, Table 14A, porinated, technical duplicate, read-out: Minimum inhibitory concentration, EKO-35 araC::acrB Pore): 0.781 µg/mL; MIC (EKO-35 (empty pCA24N); Escherichia coli): 0.391 µg/mL (≈ 1.35 µM)
Cn1cc(Br)c(-c2cccc(NC(=O)Nc3ccc(OC(F)(F)F)cc3)c2)n1 [compound 14] | 1 fold | 320 µg/mL | 320 µg/mL | 1 fold | 320 µg/mL | 1 fold | 320 µg/mL | 1 fold | 320 µg/mL | 1 fold | 320 µg/mL | 1 fold | 320 µg/mL | 1 fold | 320 µg/mL | MIC, EKO-35 (empty pCA24N), Chlor + (EKO-35 (empty pCA24N); 0.1 mM IPTG, 4 μg/mL chloramphenicol selection): >5 μg/mL; MIC, EKO-35 (empty pCA24N), Chlor − (EKO-35 (empty pCA24N); 0.1 mM IPTG, no plasmid selection): >5 μg/mL
